{"source": "PubChem BioAssay AID1963448", "about": "(Molecular Pharmacology Branch, DTP, NCI, 2024)", "system": "616215-338-R-J1-PDC complex spheroid growth, % test/control", "assay": "Anticancer human tumor 616215-338-R-J1-PDC patient-derived colon adenocarcinoma cell line growth inhibition [Asc]", "details": "for IC50: curve of first compound; for viability, T/C: stronger effect = lower value", "summary_of_the_method": "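Complex spheroids combining tumor cells with HUVEC endothelial cells and human MSCs, at 37 degrees C, 5% CO2; agents tested alone or combined, half-log dilutions from at or near clinical Cmax, or 10 microM if Cmax unknown.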"}
{"compound": "CCN1CCN(Cc2ccc(Nc3ncc(F)c(-c4cc(F)c5nc(C)n(C(C)C)c5c4)n3)nc2)CC1", "note": "+ CNC(C)C(=O)NC1CN(S(=O)(=O)c2cccc(S(=O)(=O)N3CCC4CCC(C(=O)NC(c5ccccc5)c5ccccc5)N4C(=O)C(NC(=O)C(C)NC)C3)c2)CCC2CCC(C(=O)NC(c3ccccc3)c3ccccc3)N2C1=O;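 further: spheroids exposed to agents for seven days before readout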;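 on viability, T/C: 100% = DMSO vehicle control viability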", "values": [{"measurement": "IC50", "setting": "second compound 0.00316 µM", "value": 261, "unit": "nM"}, {"measurement": "IC50", "setting": "second compound 0.01 µM", "value": 298, "unit": "nM"}, {"measurement": "IC50", "setting": "second compound 0.0316 µM", "value": 586, "unit": "nM"}, {"measurement": "IC50", "setting": "second compound 0.1 µM", "value": 441, "unit": "nM"}, {"measurement": "IC50", "setting": "second compound 0.316 µM", "value": 386, "unit": "nM"}, {"measurement": "IC50", "setting": "second compound 1 µM", "value": 555, "unit": "nM"}, {"measurement": "viability, T/C", "setting": "second compound 0.00316 µM, first compound 0.00316 µM", "value": 105, "unit": "%"}, {"measurement": "viability, T/C", "setting": "second compound 0.00316 µM, first compound 0.01 µM", "value": 105, "unit": "%"}, {"measurement": "viability, T/C", "setting": "second compound 0.00316 µM, first compound 0.0316 µM", "value": 92.1, "unit": "%"}, {"measurement": "viability, T/C", "setting": "second compound 0.00316 µM, first compound 0.1 µM", "value": 92.4, "unit": "%"}, {"measurement": "viability, T/C", "setting": "second compound 0.00316 µM, first compound 0.316 µM", "value": 41.5, "unit": "%"}, {"measurement": "viability, T/C", "setting": "second compound 0.00316 µM, first compound 1 µM", "value": 16, "unit": "%"}, {"measurement": "viability, T/C", "setting": "second compound 0.01 µM, first compound 0.00316 µM", "value": 106, "unit": "%"}, {"measurement": "viability, T/C", "setting": "second compound 0.01 µM, first compound 0.01 µM", "value": 112, "unit": "%"}, {"measurement": "viability, T/C", "setting": "second compound 0.01 µM, first compound 0.0316 µM", "value": 99.2, "unit": "%"}, {"measurement": "viability, T/C", "setting": "second compound 0.01 µM, first compound 0.1 µM", "value": 60.1, "unit": "%"}, {"measurement": "viability, T/C", "setting": "second compound 0.01 µM, first compound 0.316 µM", "value": 58, "unit": "%"}, {"measurement": "viability, T/C", "setting": "second compound 0.01 µM, first compound 1 µM", "value": 18.8, "unit": "%"}, {"measurement": "viability, T/C", "setting": "second compound 0.0316 µM, first compound 0.00316 µM", "value": 100, "unit": "%"}, {"measurement": "viability, T/C", "setting": "second compound 0.0316 µM, first compound 0.01 µM", "value": 114, "unit": "%"}, {"measurement": "viability, T/C", "setting": "second compound 0.0316 µM, first compound 0.0316 µM", "value": 90.9, "unit": "%"}, {"measurement": "viability, T/C", "setting": "second compound 0.0316 µM, first compound 0.1 µM", "value": 90, "unit": "%"}, {"measurement": "viability, T/C", "setting": "second compound 0.0316 µM, first compound 0.316 µM", "value": 87.9, "unit": "%"}, {"measurement": "viability, T/C", "setting": "second compound 0.0316 µM, first compound 1 µM", "value": 19.5, "unit": "%"}, {"measurement": "viability, T/C", "setting": "second compound 0.1 µM, first compound 0.00316 µM", "value": 107, "unit": "%"}, {"measurement": "viability, T/C", "setting": "second compound 0.1 µM, first compound 0.01 µM", "value": 105, "unit": "%"}, {"measurement": "viability, T/C", "setting": "second compound 0.1 µM, first compound 0.0316 µM", "value": 102, "unit": "%"}, {"measurement": "viability, T/C", "setting": "second compound 0.1 µM, first compound 0.1 µM", "value": 67.7, "unit": "%"}, {"measurement": "viability, T/C", "setting": "second compound 0.1 µM, first compound 0.316 µM", "value": 73.3, "unit": "%"}, {"measurement": "viability, T/C", "setting": "second compound 0.1 µM, first compound 1 µM", "value": 18.9, "unit": "%"}, {"measurement": "viability, T/C", "setting": "second compound 0.316 µM, first compound 0.00316 µM", "value": 111, "unit": "%"}, {"measurement": "viability, T/C", "setting": "second compound 0.316 µM, first compound 0.01 µM", "value": 107, "unit": "%"}, {"measurement": "viability, T/C", "setting": "second compound 0.316 µM, first compound 0.0316 µM", "value": 90.4, "unit": "%"}, {"measurement": "viability, T/C", "setting": "second compound 0.316 µM, first compound 0.1 µM", "value": 61.8, "unit": "%"}, {"measurement": "viability, T/C", "setting": "second compound 0.316 µM, first compound 0.316 µM", "value": 61.3, "unit": "%"}, {"measurement": "viability, T/C", "setting": "second compound 0.316 µM, first compound 1 µM", "value": 33.3, "unit": "%"}, {"measurement": "viability, T/C", "setting": "second compound 1 µM, first compound 0.00316 µM", "value": 100, "unit": "%"}, {"measurement": "viability, T/C", "setting": "second compound 1 µM, first compound 0.01 µM", "value": 111, "unit": "%"}, {"measurement": "viability, T/C", "setting": "second compound 1 µM, first compound 0.0316 µM", "value": 101, "unit": "%"}, {"measurement": "viability, T/C", "setting": "second compound 1 µM, first compound 0.1 µM", "value": 101, "unit": "%"}, {"measurement": "viability, T/C", "setting": "second compound 1 µM, first compound 0.316 µM", "value": 67.8, "unit": "%"}, {"measurement": "viability, T/C", "setting": "second compound 1 µM, first compound 1 µM", "value": 31.3, "unit": "%"}]}
